Results reported in ChEMBL document CHEMBL1153595, “Structure-based design and parallel synthesis of N-benzyl isatin oximes as JNK3 MAP kinase inhibitors” (Bioorg Med Chem Lett, 2009).

How the values were obtained:
[1] = target: Mitogen-activated protein kinase 10 (Homo sapiens, UniProt P53779); test: Inhibition of JNK3 by spectrophotometric coupled enzyme assay
[2] = target: Mitogen-activated protein kinase 1 (Homo sapiens, UniProt P28482); test: Inhibition of ERK2 by spectrophotometric coupled enzyme assay
Chain of Mitogen-activated protein kinase 1 (P28482 whole entry): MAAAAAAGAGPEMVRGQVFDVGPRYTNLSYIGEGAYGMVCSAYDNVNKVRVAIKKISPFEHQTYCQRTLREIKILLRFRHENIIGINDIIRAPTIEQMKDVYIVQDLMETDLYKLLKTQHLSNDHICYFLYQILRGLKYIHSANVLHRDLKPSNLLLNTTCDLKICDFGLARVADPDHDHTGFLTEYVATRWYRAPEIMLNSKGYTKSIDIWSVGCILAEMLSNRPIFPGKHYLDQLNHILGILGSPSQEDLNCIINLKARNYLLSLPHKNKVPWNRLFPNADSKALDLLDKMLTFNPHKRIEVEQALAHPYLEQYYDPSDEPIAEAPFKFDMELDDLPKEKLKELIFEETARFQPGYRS

[3] = target: Mitogen-activated protein kinase 14 (Homo sapiens, UniProt Q16539); test: Inhibition of p38alpha by spectrophotometric coupled enzyme assay
Chain of Mitogen-activated protein kinase 14 (Q16539 whole entry): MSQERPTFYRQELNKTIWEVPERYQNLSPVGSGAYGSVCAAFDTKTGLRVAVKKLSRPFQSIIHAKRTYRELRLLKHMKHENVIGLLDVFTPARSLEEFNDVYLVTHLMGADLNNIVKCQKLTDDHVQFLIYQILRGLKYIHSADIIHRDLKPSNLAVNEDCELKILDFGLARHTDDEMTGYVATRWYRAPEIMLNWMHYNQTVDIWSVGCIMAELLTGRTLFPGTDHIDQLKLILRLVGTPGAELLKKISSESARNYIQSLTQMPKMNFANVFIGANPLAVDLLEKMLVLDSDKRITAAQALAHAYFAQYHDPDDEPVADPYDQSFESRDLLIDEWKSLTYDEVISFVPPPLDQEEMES

[4] = target: Mitogen-activated protein kinase 9 (Homo sapiens, UniProt P45984); test: Inhibition of JNK2
Chain of Mitogen-activated protein kinase 9 (P45984 whole entry): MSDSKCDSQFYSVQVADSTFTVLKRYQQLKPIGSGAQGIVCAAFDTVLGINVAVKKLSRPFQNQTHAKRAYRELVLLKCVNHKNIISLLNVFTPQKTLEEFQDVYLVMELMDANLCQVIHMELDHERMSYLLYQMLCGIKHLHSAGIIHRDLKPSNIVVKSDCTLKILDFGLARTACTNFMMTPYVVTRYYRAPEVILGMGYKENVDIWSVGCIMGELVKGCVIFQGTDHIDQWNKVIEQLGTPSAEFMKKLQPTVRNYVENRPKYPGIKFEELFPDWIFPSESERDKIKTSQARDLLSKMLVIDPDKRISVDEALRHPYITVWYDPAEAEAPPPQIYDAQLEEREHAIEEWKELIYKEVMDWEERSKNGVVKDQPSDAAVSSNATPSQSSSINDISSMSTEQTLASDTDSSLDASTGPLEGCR

[5] = target: T1, Receptor-type tyrosine-protein kinase FLT3 (Homo sapiens, UniProt P36888); test: Inhibition of FLT3
T1 sequence (P36888 whole entry): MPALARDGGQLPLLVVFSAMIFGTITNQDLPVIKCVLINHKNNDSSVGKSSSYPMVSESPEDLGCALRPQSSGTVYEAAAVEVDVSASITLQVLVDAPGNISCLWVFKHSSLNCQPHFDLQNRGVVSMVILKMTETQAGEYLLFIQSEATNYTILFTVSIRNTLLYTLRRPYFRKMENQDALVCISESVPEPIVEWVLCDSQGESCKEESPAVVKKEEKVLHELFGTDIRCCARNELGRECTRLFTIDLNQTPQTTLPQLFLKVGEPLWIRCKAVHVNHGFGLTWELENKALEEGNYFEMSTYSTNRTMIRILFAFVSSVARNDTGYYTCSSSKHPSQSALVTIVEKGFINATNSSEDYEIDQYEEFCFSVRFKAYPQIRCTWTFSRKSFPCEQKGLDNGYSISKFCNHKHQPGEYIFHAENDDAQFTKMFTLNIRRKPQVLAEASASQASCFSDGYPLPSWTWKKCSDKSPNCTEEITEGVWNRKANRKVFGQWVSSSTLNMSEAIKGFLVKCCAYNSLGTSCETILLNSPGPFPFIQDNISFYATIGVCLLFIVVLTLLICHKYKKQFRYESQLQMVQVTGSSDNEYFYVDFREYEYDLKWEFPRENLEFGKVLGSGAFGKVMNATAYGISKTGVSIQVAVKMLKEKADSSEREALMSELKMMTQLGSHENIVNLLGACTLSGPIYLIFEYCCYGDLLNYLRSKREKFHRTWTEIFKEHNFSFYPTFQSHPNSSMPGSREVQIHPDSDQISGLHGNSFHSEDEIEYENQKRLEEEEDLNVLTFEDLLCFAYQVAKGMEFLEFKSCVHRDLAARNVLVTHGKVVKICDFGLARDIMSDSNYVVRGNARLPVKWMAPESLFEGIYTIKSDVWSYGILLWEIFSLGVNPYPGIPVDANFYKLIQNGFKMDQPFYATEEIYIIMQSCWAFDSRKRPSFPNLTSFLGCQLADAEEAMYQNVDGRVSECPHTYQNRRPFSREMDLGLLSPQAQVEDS

[6] = target: Proto-oncogene tyrosine-protein kinase Src (Homo sapiens, UniProt P12931); test: Inhibition of Src
Chain of Proto-oncogene tyrosine-protein kinase Src (P12931 2-536 limits assumed): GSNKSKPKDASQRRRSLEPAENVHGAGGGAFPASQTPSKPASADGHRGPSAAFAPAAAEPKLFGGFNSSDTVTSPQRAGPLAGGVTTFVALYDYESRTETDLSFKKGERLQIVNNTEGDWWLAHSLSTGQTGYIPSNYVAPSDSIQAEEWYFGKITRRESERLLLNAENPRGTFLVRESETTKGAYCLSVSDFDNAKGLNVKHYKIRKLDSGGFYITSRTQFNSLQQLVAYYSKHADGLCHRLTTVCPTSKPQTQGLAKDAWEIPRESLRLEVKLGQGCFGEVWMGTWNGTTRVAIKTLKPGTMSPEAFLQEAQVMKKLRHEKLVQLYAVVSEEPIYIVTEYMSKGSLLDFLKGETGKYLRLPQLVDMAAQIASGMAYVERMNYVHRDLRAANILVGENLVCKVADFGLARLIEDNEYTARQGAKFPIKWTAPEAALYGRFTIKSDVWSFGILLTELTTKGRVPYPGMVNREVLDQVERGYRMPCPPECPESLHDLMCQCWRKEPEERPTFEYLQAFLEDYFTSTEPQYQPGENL

[7] = target: Angiopoietin-1 receptor (Homo sapiens, UniProt Q02763); test: Inhibition of Tie2
Chain of Angiopoietin-1 receptor (Q02763 whole entry): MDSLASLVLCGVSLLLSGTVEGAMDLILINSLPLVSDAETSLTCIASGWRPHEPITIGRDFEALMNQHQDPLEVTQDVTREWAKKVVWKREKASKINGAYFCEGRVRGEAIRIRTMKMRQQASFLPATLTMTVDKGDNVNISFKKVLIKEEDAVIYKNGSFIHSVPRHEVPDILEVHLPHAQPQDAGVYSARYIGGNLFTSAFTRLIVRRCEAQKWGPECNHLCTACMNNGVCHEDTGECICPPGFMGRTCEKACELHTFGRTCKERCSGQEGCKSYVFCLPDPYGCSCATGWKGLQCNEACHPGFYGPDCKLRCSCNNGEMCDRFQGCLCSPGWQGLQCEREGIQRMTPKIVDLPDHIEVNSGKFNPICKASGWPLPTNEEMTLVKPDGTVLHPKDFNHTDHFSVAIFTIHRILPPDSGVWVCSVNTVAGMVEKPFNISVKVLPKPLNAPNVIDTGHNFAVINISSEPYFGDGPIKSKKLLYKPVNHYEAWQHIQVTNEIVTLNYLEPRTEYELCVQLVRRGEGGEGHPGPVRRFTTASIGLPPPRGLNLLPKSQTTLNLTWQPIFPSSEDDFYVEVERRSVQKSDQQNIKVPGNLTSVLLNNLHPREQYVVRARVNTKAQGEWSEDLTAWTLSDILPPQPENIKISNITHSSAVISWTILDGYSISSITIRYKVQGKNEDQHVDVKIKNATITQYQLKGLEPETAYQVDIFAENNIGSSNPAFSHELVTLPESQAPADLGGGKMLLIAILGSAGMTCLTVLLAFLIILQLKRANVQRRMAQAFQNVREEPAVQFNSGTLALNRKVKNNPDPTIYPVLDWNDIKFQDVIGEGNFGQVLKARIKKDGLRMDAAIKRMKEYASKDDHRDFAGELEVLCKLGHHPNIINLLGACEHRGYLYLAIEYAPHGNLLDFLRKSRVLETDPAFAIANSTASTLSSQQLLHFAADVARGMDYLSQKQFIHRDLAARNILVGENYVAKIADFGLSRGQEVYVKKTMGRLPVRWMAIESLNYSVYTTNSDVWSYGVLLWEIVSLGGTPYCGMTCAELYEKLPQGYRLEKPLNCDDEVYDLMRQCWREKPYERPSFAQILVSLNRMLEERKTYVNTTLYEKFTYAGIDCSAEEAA

[8] = target: Rho-associated protein kinase 1 (Homo sapiens, UniProt Q13464); test: Inhibition of ROCK1
Chain of Rho-associated protein kinase 1 (Q13464 whole entry): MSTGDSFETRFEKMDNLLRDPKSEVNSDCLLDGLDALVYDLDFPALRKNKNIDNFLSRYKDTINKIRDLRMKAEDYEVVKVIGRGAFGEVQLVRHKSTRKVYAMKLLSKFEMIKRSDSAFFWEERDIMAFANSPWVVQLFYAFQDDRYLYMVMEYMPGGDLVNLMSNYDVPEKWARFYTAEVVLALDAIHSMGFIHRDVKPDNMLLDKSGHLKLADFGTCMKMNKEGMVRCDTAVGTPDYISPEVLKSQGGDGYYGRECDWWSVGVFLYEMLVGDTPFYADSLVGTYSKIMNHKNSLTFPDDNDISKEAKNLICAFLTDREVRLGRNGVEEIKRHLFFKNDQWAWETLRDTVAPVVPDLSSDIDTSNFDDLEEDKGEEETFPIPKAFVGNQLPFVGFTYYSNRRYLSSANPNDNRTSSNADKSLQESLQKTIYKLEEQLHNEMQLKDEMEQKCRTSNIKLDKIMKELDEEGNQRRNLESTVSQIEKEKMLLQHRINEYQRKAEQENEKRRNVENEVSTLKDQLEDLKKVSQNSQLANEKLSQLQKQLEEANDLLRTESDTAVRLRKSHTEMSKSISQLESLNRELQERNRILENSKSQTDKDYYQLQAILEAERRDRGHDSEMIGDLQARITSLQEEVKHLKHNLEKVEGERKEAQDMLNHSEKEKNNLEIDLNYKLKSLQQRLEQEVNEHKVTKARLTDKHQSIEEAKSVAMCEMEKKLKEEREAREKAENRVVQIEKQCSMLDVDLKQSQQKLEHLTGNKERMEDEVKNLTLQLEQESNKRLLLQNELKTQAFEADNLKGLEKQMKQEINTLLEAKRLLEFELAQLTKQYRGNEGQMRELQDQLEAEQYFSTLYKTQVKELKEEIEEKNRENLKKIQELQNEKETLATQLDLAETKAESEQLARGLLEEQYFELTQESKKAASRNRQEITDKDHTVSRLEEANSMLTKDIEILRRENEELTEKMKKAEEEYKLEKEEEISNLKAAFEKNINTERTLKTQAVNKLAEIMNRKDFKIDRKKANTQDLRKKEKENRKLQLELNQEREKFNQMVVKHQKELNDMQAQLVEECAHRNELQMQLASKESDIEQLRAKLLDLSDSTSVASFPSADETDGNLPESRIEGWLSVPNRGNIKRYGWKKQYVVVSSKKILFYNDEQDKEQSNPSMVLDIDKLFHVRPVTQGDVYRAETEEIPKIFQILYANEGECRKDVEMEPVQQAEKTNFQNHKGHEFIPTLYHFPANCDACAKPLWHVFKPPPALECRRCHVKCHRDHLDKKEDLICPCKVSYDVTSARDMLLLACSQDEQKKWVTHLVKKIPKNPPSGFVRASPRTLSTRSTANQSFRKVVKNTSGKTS

[9] = target: Cyclin-dependent kinase 2 (Homo sapiens, UniProt P24941); test: Inhibition of CDK2
[10] = target: T2, Tyrosine-protein kinase JAK3 (Homo sapiens, UniProt P52333); test: Inhibition of JAK3
T2 sequence (P52333 whole entry): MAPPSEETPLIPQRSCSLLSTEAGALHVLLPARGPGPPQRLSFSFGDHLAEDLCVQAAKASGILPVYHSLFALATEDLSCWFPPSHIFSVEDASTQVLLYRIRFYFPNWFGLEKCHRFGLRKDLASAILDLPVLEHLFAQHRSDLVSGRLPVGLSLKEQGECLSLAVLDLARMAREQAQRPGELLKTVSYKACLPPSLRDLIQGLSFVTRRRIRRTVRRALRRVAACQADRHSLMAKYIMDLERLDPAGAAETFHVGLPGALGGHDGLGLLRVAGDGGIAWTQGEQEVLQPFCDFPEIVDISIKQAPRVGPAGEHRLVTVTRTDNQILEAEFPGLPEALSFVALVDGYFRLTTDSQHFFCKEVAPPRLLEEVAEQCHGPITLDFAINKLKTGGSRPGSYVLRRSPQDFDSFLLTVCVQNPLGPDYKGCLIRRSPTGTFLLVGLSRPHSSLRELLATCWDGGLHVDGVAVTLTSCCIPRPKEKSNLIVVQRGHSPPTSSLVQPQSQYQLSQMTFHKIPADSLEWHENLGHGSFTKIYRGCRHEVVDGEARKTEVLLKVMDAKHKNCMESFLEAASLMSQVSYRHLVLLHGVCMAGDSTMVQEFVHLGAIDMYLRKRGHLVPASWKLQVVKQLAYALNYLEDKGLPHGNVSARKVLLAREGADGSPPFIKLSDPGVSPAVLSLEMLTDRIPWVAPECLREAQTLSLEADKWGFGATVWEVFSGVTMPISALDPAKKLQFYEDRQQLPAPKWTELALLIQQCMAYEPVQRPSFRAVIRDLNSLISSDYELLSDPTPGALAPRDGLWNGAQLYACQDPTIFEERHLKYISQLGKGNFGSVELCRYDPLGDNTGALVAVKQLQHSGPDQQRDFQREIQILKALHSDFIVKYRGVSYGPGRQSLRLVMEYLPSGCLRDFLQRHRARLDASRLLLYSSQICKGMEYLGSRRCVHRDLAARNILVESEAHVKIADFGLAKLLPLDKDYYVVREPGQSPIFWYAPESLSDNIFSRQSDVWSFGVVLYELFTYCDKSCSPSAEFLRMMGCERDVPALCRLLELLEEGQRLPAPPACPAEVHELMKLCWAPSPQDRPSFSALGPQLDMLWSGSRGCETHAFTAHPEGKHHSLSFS

[11] = target: RAC-gamma serine/threonine-protein kinase (Homo sapiens, UniProt Q9Y243); test: Inhibition of AKT3
[12] = target: Glycogen synthase kinase-3 beta (Homo sapiens, UniProt P49841); test: Inhibition of GSK3-beta
[13] = target: Tyrosine-protein kinase Lck (Homo sapiens, UniProt P06239); test: Inhibition of LCK
[14] = target: Mitogen-activated protein kinase 8 (Homo sapiens, UniProt P45983); test: Inhibition of JNK1
Chain of Mitogen-activated protein kinase 8 (P45983 whole entry): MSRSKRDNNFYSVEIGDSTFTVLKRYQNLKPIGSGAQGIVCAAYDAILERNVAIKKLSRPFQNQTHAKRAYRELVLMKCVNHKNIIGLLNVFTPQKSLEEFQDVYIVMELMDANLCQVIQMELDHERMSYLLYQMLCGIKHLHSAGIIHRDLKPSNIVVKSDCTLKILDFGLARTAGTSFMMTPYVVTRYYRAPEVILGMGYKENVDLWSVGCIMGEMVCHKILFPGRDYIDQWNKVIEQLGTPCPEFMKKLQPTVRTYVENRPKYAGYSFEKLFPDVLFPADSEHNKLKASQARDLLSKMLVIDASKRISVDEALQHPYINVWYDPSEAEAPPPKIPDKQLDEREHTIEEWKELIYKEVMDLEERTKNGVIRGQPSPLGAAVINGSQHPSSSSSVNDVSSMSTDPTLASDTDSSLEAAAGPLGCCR

Chain of Mitogen-activated protein kinase 10 (P53779 whole entry): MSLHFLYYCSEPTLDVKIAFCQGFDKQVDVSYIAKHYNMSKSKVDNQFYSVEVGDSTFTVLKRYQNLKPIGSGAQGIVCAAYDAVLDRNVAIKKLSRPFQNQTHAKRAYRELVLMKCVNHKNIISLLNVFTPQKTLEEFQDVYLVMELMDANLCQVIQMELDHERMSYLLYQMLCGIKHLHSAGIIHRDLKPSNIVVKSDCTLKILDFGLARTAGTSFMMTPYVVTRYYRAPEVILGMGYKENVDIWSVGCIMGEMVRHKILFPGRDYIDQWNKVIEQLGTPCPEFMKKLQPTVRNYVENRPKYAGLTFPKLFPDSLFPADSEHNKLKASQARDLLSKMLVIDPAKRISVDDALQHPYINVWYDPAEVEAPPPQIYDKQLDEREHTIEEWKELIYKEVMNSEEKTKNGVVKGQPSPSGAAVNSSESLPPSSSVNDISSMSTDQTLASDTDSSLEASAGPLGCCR

| Structure (SMILES) | Ki [1] [µM] | also measured |
| --- | --- | --- |
| O=Nc1c(O)n(Cc2cccc(C(F)(F)F)c2)c2ccccc12 | 5.2 |  |
| O=Nc1c(O)n(Cc2ccc(Cl)cc2)c2ccccc12 | 6.7 |  |
| O=Nc1c(O)n(Cc2cccc(Cl)c2)c2ccccc12 | 5 |  |
| O=Nc1c(O)n(Cc2ccccc2)c2ccccc12 | > 10 |  |
| Cc1ccc(Cn2c(O)c(N=O)c3ccccc32)cc1 | 9.9 |  |
| O=C1/C(=N\O)c2c(-c3ccccc3)cccc2N1Cc1cc(F)cc2c1OCOC2 |  | Ki [2]: 25 µM; Ki [3]: 9.5 µM |
| O=C1/C(=N\O)c2ccc(Br)cc2N1Cc1cc(F)cc2c1OCOC2 | 0.1 |  |
| O=C1/C(=N\O)c2ccc(-c3ccccc3)cc2N1Cc1cc(F)cc2c1OCOC2 | 0.2 |  |
| COc1cc(CN2C(=O)/C(=N\O)c3ccccc32)cc(OC)c1 | 0.99 |  |
| Cc1cccc(CN2C(=O)/C(=N\O)c3cc(C)ccc32)c1 | > 10 |  |
| COc1cc(CN2C(=O)/C(=N\O)c3cc(F)ccc32)cc(OC)c1 | 0.79 |  |
| Cc1ccc2c(c1)N(Cc1cc(F)cc3c1OCOC3)C(=O)/C2=N\O | 0.09 | Ki [4]: 0.07 µM; Ki [2]: > 50 µM; Ki [5]: 4 µM; Ki [6]: > 30 µM; Ki [7]: > 10 µM; Ki [8]: > 30 µM; Ki [3]: > 20 µM; Ki [9]: > 30 µM; Ki [10]: > 30 µM; Ki [11]: > 30 µM; Ki [12]: > 30 µM; Ki [13]: > 30 µM; Ki [14]: 0.45 µM |
| O=C1/C(=N\O)c2ccc([N+](=O)[O-])cc2N1Cc1cc(F)cc2c1OCOC2 | 0.64 |  |
| O=C1/C(=N\O)c2cc(OC(F)(F)F)ccc2N1Cc1cc(F)cc2c1OCOC2 | 1.7 |  |
| O=C1/C(=N\O)c2ccccc2N1Cc1ccc(F)cc1 | 8.3 |  |
| CCC(=O)Nc1ccc2c(c1)N(Cc1cc(F)cc3c1OCOC3)C(=O)/C2=N\O | 0.61 |  |
| O=C1/C(=N\O)c2ccccc2N1Cc1cc(F)cc2c1OCOC2 | 0.51 |  |
| O=C1/C(=N\O)c2cc(Br)ccc2N1Cc1ccccc1 | 2.5 |  |
| Cc1ccc2c(c1)/C(=N/O)C(=O)N2c1ccccc1 | > 30 |  |
| CCc1cccc2c1/C(=N/O)C(=O)N2Cc1cc(F)cc2c1OCOC2 | 1.4 | Ki [2]: > 15 µM |
| N#Cc1cccc2c1/C(=N/O)C(=O)N2Cc1cc(F)cc2c1OCOC2 | 2 |  |
| O=C1/C(=N\O)c2ccc(C(F)(F)F)cc2N1Cc1cc(F)cc2c1OCOC2 | 0.33 |  |
| O=C(O)c1ccc2c(c1)N(Cc1cc(F)cc3c1OCOC3)C(=O)/C2=N\O | 0.3 |  |
| O=C1/C(=N\O)c2c(-c3cccc(F)c3)cccc2N1Cc1cc(F)cc2c1OCOC2 | 5.8 | Ki [2]: 23 µM; Ki [3]: 7.4 µM |

| Structure (SMILES) | Ki [1] [µM] | also measured |
| --- | --- | --- |
| Cc1cccc2c1/C(=N/O)C(=O)N2Cc1cc(F)cc2c1OCOC2 | 0.7 | Ki [2]: > 15 µM |
| Cc1cccc(CN2C(=O)/C(=N\O)c3ccccc32)c1 | 6.8 |  |
| O=C1/C(=N\O)c2cc(F)ccc2N1Cc1ccccc1 | > 10 |  |
| Cc1ccc2c(c1)/C(=N/O)C(=O)N2Cc1cccc(C(F)(F)F)c1 | 2.7 |  |
| COC(=O)c1cccc2c1/C(=N/O)C(=O)N2Cc1cc(F)cc2c1OCOC2 | 30 | Ki [2]: > 15 µM |
| O=C1/C(=N\O)c2c(CCc3ccccc3)cccc2N1Cc1cc(F)cc2c1OCOC2 | > 15 | Ki [2]: > 15 µM; Ki [3]: 0.03 µM |
| O=C1/C(=N\O)c2ccccc2N1Cc1ccc([N+](=O)[O-])cc1 | 7 |  |
| Cc1ccc2c(c1)/C(=N/O)C(=O)N2Cc1ccccc1 | > 10 |  |
| O=C1/C(=N\O)c2cc(Cl)ccc2N1Cc1cc(F)cc2c1OCOC2 | 0.74 |  |
| COc1ccc2c(c1)N(Cc1cc(F)cc3c1OCOC3)C(=O)/C2=N\O | 0.24 |  |
| O=C1/C(=N\O)c2c(/C=C/c3ccccc3)cccc2N1Cc1cc(F)cc2c1OCOC2 |  | Ki [3]: 0.23 µM |
| Nc1ccc2c(c1)N(Cc1cc(F)cc3c1OCOC3)C(=O)/C2=N\O | 0.4 |  |
| CCNC(=O)c1ccc2c(c1)N(Cc1cc(F)cc3c1OCOC3)C(=O)/C2=N\O | 1 |  |
| O=C1/C(=N\O)c2ccccc2N1Cc1ccccc1F | 8.5 |  |
| O=C1/C(=N\O)c2c(Br)cccc2N1Cc1cc(F)cc2c1OCOC2 | 0.185 | Ki [2]: > 15 µM; Ki [3]: > 10 µM |
| O=C1/C(=N\O)c2ccccc2N1Cc1ccccc1[N+](=O)[O-] | > 10 |  |
| C=Cc1cccc2c1/C(=N/O)C(=O)N2Cc1cc(F)cc2c1OCOC2 | 0.14 | Ki [2]: > 15 µM; Ki [3]: 8 µM |
| COC(=O)c1ccc2c(c1)N(Cc1cc(F)cc3c1OCOC3)C(=O)/C2=N\O | 0.16 |  |
| O=C1/C(=N\O)c2c(-c3ccc(F)cc3)cccc2N1Cc1cc(F)cc2c1OCOC2 | 13 | Ki [2]: > 15 µM; Ki [3]: 3.4 µM |
| O=C1/C(=N\O)c2ccccc2N1Cc1cccc(F)c1 | 8.1 |  |
| CS(=O)(=O)Nc1ccc2c(c1)N(Cc1cc(F)cc3c1OCOC3)C(=O)/C2=N\O | 0.46 |  |
| COc1ccc(CN2C(=O)/C(=N\O)c3cc(F)ccc32)cc1 | 1.6 |  |
| O=C1/C(=N\O)c2ccccc2N1Cc1cccc([N+](=O)[O-])c1 | 0.94 |  |
| O=C1/C(=N\O)c2cc(Cl)ccc2N1Cc1ccccc1 | 12 |  |
